From patent US8138191B2, “Inhibitor compounds and cancer treatment methods” (Critical Outcome Technologies Inc., priority 2007, dated 2012)
Like-named read-outs stand apart in the source and are kept apart here.

Experiments:
MCF7 = assay: in vitro IC50 against cancer cell lines, MCF7; assay type: cell-based; conditions: Homo sapiens, 72 h; MCF7, Breast Cancer, 3 days
Procedure: (§1) Briefly, cells were plated in plastic tissue culture plates and grown under standard conditions for each cell line, in carbon dioxide/oxygen atmosphere in plastic tissue culture plates, in the presence of COTI-2 or COTI-219 compounds at 35° C. for 3 days. Control cultures were treated with vehicle minus compound. Cells were counted after 3 days in culture and at a cell density of no more than 80%. The following cell lines, obtained from the National Cancer Institute, were tested: human SCLC cell lines DMS153, DMS114, SHP77; human NSCLC cell lines H226, A460, A560; human breast cancer cell lines T47D, MCF7; human colon cancer cell line HT29; and, human Leukemia cell lines K562, HL60.

HT-29 = assay: CellTiter-Blue growth inhibition, single agents and combinations, HT-29; assay type: cell-based; conditions: Homo sapiens, read-out: Mean IC50, single agent
Procedure: (§2) The stock concentration was further diluted to 1 mM and added to a drug plate. […] Following dilution, 2 μl of test agent was transferred to the corresponding wells of a cell-containing 96-well plate with 198 μl of growth media. Tarceva® (erlotinib) was supplied by LC Labs (Woburn, Mass.).
Cells were grown to 70% confluency, trypsinized, counted, and seeded in 96-well flat-bottom plates at a final concentration of 2.5×10^3−5×10^3 cells/well (Day 0). […] Viable cell numbers were quantified by the CellTiter-Blue® cell viability assay, which measures the conversion of the indicator dye (resazurin) to resorufin, an indicator of cell viability. Experiments were repeated at least twice with the same concentrations to determine growth inhibitory activity.
(§3) The CI, a numerical value calculated as described in equation A, also provides a quantitative measure of the extent of drug interaction. A CI of less than, equal to, and more than 1 indicates synergy, additivity, and antagonism, respectively. CI=(CAx/ICx,A)+(CB,x/ICx,B) Equation A: Where CA,x and CB,x, are the concentrations of drug A and drug B used in combination to achieve x % drug effect. ICx,A and ICx,B are the concentrations for single agents to achieve the same effect.

HL60 = assay: in vitro IC50 against cancer cell lines, HL60; assay type: cell-based; conditions: Homo sapiens, HL-60, 72 h; HL60, Leukemia, 3 days
Procedure: as §1

HT29 = assay: in vitro IC50 against cancer cell lines, HT29; assay type: cell-based; conditions: Homo sapiens, HT-29, 72 h; HT29, Colorectal Cancer, 3 days
Procedure: as §1

COLO-205 = assay: Tumor cell proliferation, single agents and combinations, COLO-205; assay type: cell-based, human; conditions: Homo sapiens
Procedure: (§4) The 3 cell lines were treated as follows:
(§5) Day 1: Cells were plated in 96-well flat bottom plates (VWR, Mississauga, ON, Canada) and allowed to adhere overnight.
(§6) All treated and control cells were, therefore, exposed to a 1% DMSO concentration plus the desired concentration of COTI-2.
as §3

SHP77 = assay: Resistance testing over 5 generations, SHP77; assay type: cell-based, human; conditions: SHP77, 5 generations
Procedure: In order to evaluate the induction of resistance in vitro, compounds according to the invention were tested in head to head comparisons against conventional therapeutic agents Cisplatin® and Taxotere®. The compound designated COTI-4 (which is the subject of Applicant's co-pending U.S. provisional patent application entitled “Composition and Method for Treatment” filed Dec. 26, 2007) was also tested. The structure for COTI-4 is:
IC50 values were obtained using methods known to persons skilled in the art with two different human SCLC cell lines (DMS153 and SHP77) obtained from the National Cancer Institute. […] The procedure was repeated for a total of 5 generations. Emerging resistance was identified by increasing IC50 values in successive generations.

SW620 = assay: Tumor cell proliferation, single agents and combinations, SW620; assay type: cell-based, human; conditions: Homo sapiens
Procedure: as §4, §5, §6, §3

[1] = Half-life and liver clearance rate by human liver microsomes (HLM) at 0.5 mg/mL; assay type: in vitro ADME; conditions: liver microsomes
Procedure: Sampling was conducted at 1, 20, 40, 60, 120,180 and 240 minutes and the remaining concentration of each compound was evaluated. A half life (T1/2) was calculated at each concentration, along with the rate of clearance by the liver (CL). The CL values compare favorably with published values for other marketed therapeutic agents under identical conditions. The half life of compounds according to the invention is therefore likely to be long enough to permit convenient dosing, while not being so long as to lead to accumulation in patients with potential long term toxicity effects.
The incubation mixture (500 μl) consisted of 100 μl of COTI-2, 150 μl of liver microsomal fractions (1.67 mg/ml rat/human) 35.5 μl of 100 mM phosphate buffer and 214.5 μl co-factor (NADPH, UDPGA, and MgCl2). The COTI-2 compound mixture and co-factor were pre-warmed at 37° C. for 5 min, with shaking at 150 rpm. The reaction was started by adding co-factor to the test compound mixture. The final concentration of the incubation mixture was as follows:
Blank incubation was performed with the co-factors. The sampling time points included 0 and 240 min for the blank sample, and 0, 20, 40, 60, 120, 180, and 240 min for COTI-2. At each time point 50 μl of sample was added to 150 μl of methanol to stop the reaction. The sample plates were centrifuged at 4200 rpm for 15 min and the supernatant was injected into LC-MS/MS for analysis. The percent compound remaining, rate of elimination (Kel), half-life (T1/2), and intrinsic clearance (CL) using standard calculations.

SF-268 = assay: IC50 human glioma/astrocytoma cell lines (alamar Blue), SF-268
Procedure: (§7) Cell lines were obtained from the Human Tissue Culture Collection (ATCC), grown and maintained under ATCC-specified conditions, and tested to ensure viability and lack of contaminating mycoplasma and common viruses. […] A viability stain (alamar Blue) was added to cells after 4-7 days of drug exposure (approximately 4 doublings of control cells; maximum cell density in wells approximately 80%), and assayed for total cellular metabolic activity (a function of population density of live cells) by absorbance.

T47D = assay: in vitro IC50 against cancer cell lines, T47D; assay type: cell-based; conditions: Homo sapiens, 72 h, Breast Cancer, 3 days
Procedure: as §1

SNB-19 = assay: IC50 human glioma/astrocytoma cell lines (alamar Blue), SNB-19; conditions: Homo sapiens, SNB-19
Procedure: as §7

H1975 = assay: CellTiter-Blue growth inhibition, single agents and combinations, H1975; assay type: cell-based; conditions: Homo sapiens, read-out: Mean IC50, single agent
Procedure: as §2
Viable cell numbers were quantified by the CellTiter-Blue® cell viability assay, which measures the conversion of the indicator dye (resazurin) to resorufin, an indicator of cell viability. Experiments were repeated at least twice with the same concentrations to determine growth inhibitory activity.
as §3

[2] = 10 μmol, read-out: In vitro T½ (converted)
[3] = 100 μmol, read-out: In vitro T½ (converted)
[4] = average over 1, 10 and 100 μM, read-out: average half life (converted)
[5] = value before brackets, from 3 in vitro experiments, read-out: In vitro T½

SMILES | IC50 (MCF7) [nM] | IC50 (HL60) [nM] | IC50 (HT29) [nM] | emerging resistance: ratio of IC50 to IC50 of parental generation (SHP77) | microsomal CLint at 1 µM ([1]; 1 μM) [µL/min/mg] | half-life at 1 µM ([1]; 1 μM, read-out: T1/2) [h] | half-life at 1 µM ([1]; 1 μmol, read-out: In vitro T½) [h] | microsomal CLint at 10 µM ([1]; 10 μM) [µL/min/mg] | half-life at 10 µM ([1]; 10 μM, read-out: T1/2) [h] | half-life at 10 µM [1, 2] [h] | microsomal CLint at 100 µM ([1]; 100 μM) [µL/min/mg] | half-life at 100 µM ([1]; 100 μM, read-out: T1/2) [h] | half-life at 100 µM [1, 3] [h] | half-life [1, 4] [h] | half-life [1, 5] [h] | IC50 (SF-268) [nM] | IC50 (T47D) [nM] | IC50 (SNB-19) [nM] | also measured
S=C(N/N=C1/CCCc2cccnc21)N1CCN(c2ccccn2)CC1 [COTI-2] | 101 | 236 | 121 | less than 1 | 12 | 1.7 | 1.7 | 4 | 4.76 | 4.8 | 2 | 11.4 | 11.4 | 6 | ~6 | 66 | 221 | 8 | IC50 (HT-29; HT-29, 72 h): 200 nM; IC50 (COLO-205; COLO 205, read-out: Mean IC50, single agent): 4.7 nM; IC50 (SW620; SW-620, read-out: Mean IC50, single agent): 165 nM; IC50 (H1975; NCI-H1975, 72 h): 10 nM
CN1CCN(C(=S)NN=C2c3ncccc3-c3cccnc32)CC1 [COTI-219] | 421 | 374 | 403 | little to no emerging resistance | 4.2 | 5.02 | 5 | 3 | 7.01 | 7 | 2.5 | 8.47 | 8.5 | 6.8 | ~6.8 | 1170 | 367 | 1990 | IC50 (HT-29; HT-29, Colon, KRAS - WT, 72 h): 7.4 nM; IC50 (COLO-205; COLO-205, Colon, KRAS - WT, read-out: Mean IC50, single agent): 4.3 nM; IC50 (SW620; SW-620, SW620, Colon, KRAS - MUT, read-out: Mean IC50, single agent): 7.4 nM; IC50 (H1975; NCI-H1975, H1975, NSCLC, EGFR - MUT, 72 h): 100 nM
